According to patent publication US8703715B2, “Methods for inhibiting growth of prolactin-responsive cancer cells with cyclosporine a or other cyclophilin inhibitors” (The Trustees of the University of Pennsylvania, priority 2004, dated 2014):

Columns and labels:
[1] = human patients, approved indications (immunosuppressive use); cited from earlier work
breast cancer cells = breast cancer cells in culture

cyclosporine A
Peak serum concentrations [1]: 2 to 8 µg/mL
media concentration having profound effects on survival of breast cancer cells (breast cancer cells): ≥ 20 ng/mL
